The test system of test [1] is P. aeruginosa. In words: Modified disk diffusion, inhibition zone. The note with it: P. aeruginosa (G−). It counts as cell-based, Pseudomonas aeruginosa. As for the experimental part: (§1) The antimicrobial effects of the currently synthesized Schiff bases (6a-l) were tested against two Gram-positive bacteria (S. aureus and B. subtilis), two Gram-negative bacteria (E. coli and P. aeruginosa), and two strains of fungus (A. flavus and C. albicans). The modified disk diffusion method ([Alkhaldi et al., 2019]; [Manso et al., 2021]) was used to determine the inhibition zones (IZ, mm/mL) and the minimal inhibitory concentration (MIC, nM). Ciprofloxacin and Fluconazole was used as positive controls. Tables 1–3 display the findings. […]
(§2) incubated at 35-37 °C for 24-48 hours and yeast as Candida albicans (ATCC 7102) incubated at 30 °C for 24-48 hours and, then the diameters of the inhibition zones were measured in millimeters. Standard discs of ciprofloxacin (Antibacterial agent), Fluconazole (Antifungal agent) served as positive controls for antimicrobial activity but filter discs impregnated with 10 µl of solvent (distilled water, chloroform, DMSO) were used as a negative control. Blank paper disks (Schleicher & Schuell, Spain) with a diameter of 8.0 mm were impregnated 10µ of tested concentration of the stock solutions. When a filter paper disc impregnated with a tested chemical is placed on agar the chemical will diffuse from the disc into the agar. This diffusion will place the chemical in the agar only around the disc. […]

Test [2] relates to C. albicans. In words: Antifungal assay (MIC/MFC), twofold serial dilution.
The test system of test [3] is A. flavus. Described as above. The note with it: for MIC: A. flavus.
Test [4] concerns S. aureus. In words: Modified disk diffusion, inhibition zone. In kind it is cell-based, Staphylococcus aureus. The conditions noted are these: S. aureus (G+). How it is done: as §1, §2
A general note: Agar diffusion results depend on both activity and mobility in agar.

Test [5] relates to A. flavus and C. albicans. In words: Disk diffusion inhibition zone, both fungi. It counts as cell-based. The conditions noted are these: against A. flavus and C. albicans. How it is done:
(§3) The antimicrobial effects of the currently synthesized Schiff bases (6a-l) were tested against two Gram-positive bacteria (S. aureus and B. subtilis), two Gram-negative bacteria (E. coli and P. aeruginosa), and two strains of fungus (A. flavus and C. albicans). The modified disk diffusion method ([Alkhaldi et al., 2019]; [Manso et al., 2021]) was used to determine the inhibition zones (IZ, mm/mL) and the minimal inhibitory concentration (MIC, nM). Ciprofloxacin and Fluconazole was used as positive controls. Tables 1–3 display the findings.

Test [6] concerns B. subtilis. In words: Modified disk diffusion, inhibition zone. It counts as cell-based, Bacillus subtilis. The conditions noted are these: B. subtilis (G+). How it is done:
as §1, §2

The test system of test [7] is E. coli. Description: Modified disk diffusion, inhibition zone. In kind it is cell-based, Escherichia coli. The conditions noted are these: E. coli (G−). As for the experimental part: as §1, §2
Test [8] deals with C. albicans. In words: Modified disk diffusion, inhibition zone. In kind it is cell-based, Candida albicans. As for the experimental part:
as §1, §2

The test system of test [9] is B. subtilis. Description: MIC/MBC assay, twofold serial dilution. It counts as cell-based, Bacillus subtilis. As for the experimental part: (§4) The results of this in vitro assay test are consistent with the findings of the antimicrobial sensitivity test. […] It has lower antimicrobial activity than ciprofloxacin against all pathogens tested.
(§5) The MBC differs from the MIC. […]
(§6) 4.2.2. Minimum inhibitory concentration assay
(§7) In 96-well microtiter plates and […] of fresh bacterial culture of a single McFarland unit overnight, a double serial dilution of each compound […] in sterile standard saline were prepared to every single source well. Ciprofloxacin antibiotic (5 mg / mL - 1) and normal saline were included as standard reference in each assay. The plates were incubated at 37 0C overnight. As an indicator of bacterial growth, […] of p-iodonitrotetrazolium violet (INT) was added to each well and incubated at 37 0C for 30 […]
(§8) min. MIC values are recorded as the lowest concentration of the extract that completely inhibited bacterial growth that is clear well. The colorless tetrazolidium salt acts as an electron accepter and is reduced to a red colored formazan product by biological activity organisms. Where bacterial growth was inhibited, the solution in the well remained clear after incubation with INT. […]

Test [10] relates to Gram-positive and Gram-negative bacteria. In words: Disk diffusion inhibition zone, all bacterial pathogens tested. In kind it is cell-based. How it is done:
as §3

The subject of test [11] is S. aureus. In words: MIC/MBC assay, twofold serial dilution. It counts as cell-based, Staphylococcus aureus. As for the experimental part:
as §4, §5, §6, §7, §8

Test [12] deals with E. coli. In words: MIC/MBC assay, twofold serial dilution. It counts as cell-based, Escherichia coli. How it is done: as §4, §5, §6, §7, §8
Test [13] concerns P. aeruginosa. Description: MIC/MBC assay, twofold serial dilution. It counts as cell-based, Pseudomonas aeruginosa. As for the experimental part: as §4, §5, §6, §7, §8
Test [14] relates to A. flavus. Description: Modified disk diffusion, inhibition zone. In kind it is cell-based, Aspergillus flavus. How it is done:
as §1, §2

SMILES strings stand for the structures. Values after ≈ are worked out from the molar mass of the structure shown. Read-outs that look alike come from different tables or passages of the source.

Usually MIC stands for the lowest concentration found to suppress growth. For orientation: MFC means the lowest tested concentration that kills the fungus rather than only halting it. Read a low MFC as more potent killing. For the molecule `OC(Cn1cncn1)(Cn1cncn1)c1ccc(F)cc1F` [Fluconazole, reference compound], the “Inhibition zone (IZ) diameter” value in the test on P. aeruginosa [1], in the test with S. aureus [4], in the test with B. subtilis [6] and in the test with E. coli [7] was “NA (NA: no activity (8 mm))” throughout. In addition, the MIC against C. albicans [2] (C. albicans) amounted to 17.50 ± 1 µM (≈ 5.36 µg/mL); in the test with C. albicans [2] (Candida albicans), 17.5 µM (≈ 5.36 µg/mL); in the test on A. flavus [3], 11.50 ± 1 µM (≈ 3.52 µg/mL); in the test with A. flavus [3] (Aspergillus flavus), 11.5 µM (≈ 3.52 µg/mL). The results for the MFC in the test on C. albicans [2] (Candida albicans) and with A. flavus [3] (Aspergillus flavus) were 35 ± 2 µM (≈ 10.7 µg/mL) and 22.8 ± 1 µM (≈ 6.98 µg/mL), respectively. The IZ values in [5] is 40 mm.

As usually defined, the MBC is the smallest concentration meeting the test's criterion for killing. Consider `O=C(O)c1cn(C2CC2)c2cc(N3CCNCC3)c(F)cc2c1=O` [Ciprofloxacin, reference compound], for which the “Inhibition zone (IZ) diameter” value in the test with C. albicans [8] and with A. flavus [14] was “NA (NA: no activity (8 mm))” in each case. The MBC in the test with B. subtilis [9] turned out to be 0.019 ± 0.001 µM (≈ 0.0063 µg/mL); in the test on B. subtilis [9] (Bacillus subtilis, read-out: MBC), 0.019 µM (≈ 0.0063 µg/mL); in the test on S. aureus [11] it was 0.045 ± 0.002 µM (≈ 0.0149 µg/mL); in the test with S. aureus [11] (Staphylococcus aureus, read-out: MBC) it was 0.045 µM (≈ 0.0149 µg/mL); against E. coli [12], 0.09 ± 0.006 µM (≈ 0.0298 µg/mL); with E. coli [12] (Escherichia coli, read-out: MBC), 0.09 µM (≈ 0.0298 µg/mL). Moreover, the MBC against P. aeruginosa [13] was found to be 0.09 ± 0.006 µM (≈ 0.0298 µg/mL); in the test on P. aeruginosa [13] (Pseudomonas aeruginosa, read-out: MBC), 0.09 µM (≈ 0.0298 µg/mL). In addition, the MIC with B. subtilis [9] came out at 0.01 ± 0.001 µM (≈ 0.00331 µg/mL); in the test on B. subtilis [9] (Bacillus subtilis, read-out: MIC), 0.01 µM (≈ 0.00331 µg/mL); in the test on S. aureus [11] it was 0.03 ± 0.002 µM (≈ 0.00994 µg/mL); in the test with S. aureus [11] (Staphylococcus aureus, read-out: MIC), 0.03 µM (≈ 0.00994 µg/mL); with E. coli [12] (Escherichia coli, read-out: MIC) it was 0.06 ± 0.004 µM (≈ 0.0199 µg/mL); with P. aeruginosa [13] (Pseudomonas aeruginosa, read-out: MIC), 0.06 ± 0.005 µM (≈ 0.0199 µg/mL). Also, the “Inhibition zones (IZ)” value in [10] came out at 40 mm.
